Laboratory results from patent publication US11053213B2, “Pharmaceutical compounds” (ALMAC DISCOVERY LIMITED, priority 2016, dated 2021).

biological target: USP19 (Homo sapiens (Human), UniProt O94966); assay: USP19 activity assay (fluorescence polarisation, Ubiquitin-Lys-TAMRA substrate); format: biochemical; details: full-length USP19 2.5 nM, 30 min pre-incubation, Ub substrate 500 nM; average of at least two duplicate experiments
Sequence (O94966 whole entry): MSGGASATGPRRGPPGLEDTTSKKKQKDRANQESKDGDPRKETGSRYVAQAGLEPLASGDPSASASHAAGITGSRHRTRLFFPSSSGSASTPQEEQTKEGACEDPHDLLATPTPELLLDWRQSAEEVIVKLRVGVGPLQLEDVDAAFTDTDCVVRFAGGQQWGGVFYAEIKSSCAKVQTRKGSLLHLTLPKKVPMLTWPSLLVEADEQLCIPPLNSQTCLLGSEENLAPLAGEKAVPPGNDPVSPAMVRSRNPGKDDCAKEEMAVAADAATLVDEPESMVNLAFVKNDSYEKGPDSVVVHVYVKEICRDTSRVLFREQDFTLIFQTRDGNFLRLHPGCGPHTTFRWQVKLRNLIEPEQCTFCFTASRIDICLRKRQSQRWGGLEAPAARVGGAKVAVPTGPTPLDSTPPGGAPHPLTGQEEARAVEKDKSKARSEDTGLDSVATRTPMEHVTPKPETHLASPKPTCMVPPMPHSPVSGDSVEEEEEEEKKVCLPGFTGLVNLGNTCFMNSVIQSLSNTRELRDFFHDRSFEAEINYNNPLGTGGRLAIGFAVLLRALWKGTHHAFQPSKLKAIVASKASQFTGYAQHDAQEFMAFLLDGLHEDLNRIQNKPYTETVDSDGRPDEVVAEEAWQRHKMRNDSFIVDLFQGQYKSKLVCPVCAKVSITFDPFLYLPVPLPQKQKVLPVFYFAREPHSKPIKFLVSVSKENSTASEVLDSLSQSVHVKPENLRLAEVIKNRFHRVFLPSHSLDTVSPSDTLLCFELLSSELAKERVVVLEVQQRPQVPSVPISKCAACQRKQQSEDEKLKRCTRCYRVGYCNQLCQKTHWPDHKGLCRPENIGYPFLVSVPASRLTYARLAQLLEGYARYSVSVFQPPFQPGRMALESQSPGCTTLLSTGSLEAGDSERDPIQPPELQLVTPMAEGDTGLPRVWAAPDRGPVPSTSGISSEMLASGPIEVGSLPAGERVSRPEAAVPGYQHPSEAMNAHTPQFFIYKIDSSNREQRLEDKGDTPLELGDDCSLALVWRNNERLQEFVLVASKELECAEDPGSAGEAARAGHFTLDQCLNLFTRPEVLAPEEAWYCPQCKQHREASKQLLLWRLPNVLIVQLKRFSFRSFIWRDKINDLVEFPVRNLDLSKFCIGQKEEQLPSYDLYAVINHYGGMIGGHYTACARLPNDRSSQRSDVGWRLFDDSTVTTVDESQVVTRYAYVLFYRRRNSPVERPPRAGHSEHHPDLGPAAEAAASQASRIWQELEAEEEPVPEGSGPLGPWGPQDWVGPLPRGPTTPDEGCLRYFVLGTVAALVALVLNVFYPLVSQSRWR

Row | SMILES | IC50 [µM]
1 | CN(C)C(=O)c1cn(CC2(O)CCN(C(=O)C3CCC(F)C3)CC23CCCC3)c(=O)cc1-c1ccccc1 (stereo not shown) [Example 177, 1-((7-(3-Fluorocyclopentane-1-carbonyl)-10-hydroxy-7-azaspiro[4.5]decan-10-yl)methyl)-N,N-dimethyl-6-oxo-4-phenyl-1,6-dihydropyridine-3-carboxamide] | 50 to 250
2 | CN(C)C(=O)c1cn(CC2(O)CCN(C(=O)C3(CC(F)F)CC3)CC23CCCC3)c(=O)cc1-c1ccccc1 (stereo not shown) [Example 178, 1-((7-(1-(2,2-Difluoroethyl)cyclopropane-1-carbonyl)-10-hydroxy-7-azaspiro[4.5]decan-10-yl)methyl)-N,N-dimethyl-6-oxo-4-phenyl-1,6-dihydropyridine-3-carboxamide] | 50 to 250
3 | CN(C)C(=O)c1cn(CC2(O)CCN(C(=O)C34CCC(CC3)C4)CC23CCCC3)c(=O)cc1-c1ccccc1 (stereo not shown) [Example 179, 1-((7-(Bicyclo[2.2.1]heptane-1-carbonyl)-10-hydroxy-7-azaspiro[4.5]decan-10-yl)methyl)-N,N-dimethyl-6-oxo-4-phenyl-1,6-dihydropyridine-3-carboxamide] | 50 to 250
4 | CCOCCC(=O)N1CCC(O)(Cn2cc(C(=O)N(C)C)c(-c3ccccc3)cc2=O)C2(CCCC2)C1 (stereo not shown) [Example 182, 1-((7-(3-Ethoxypropanoyl)-10-hydroxy-7-azaspiro[4.5]decan-10-yl)methyl)-N,N-dimethyl-6-oxo-4-phenyl-1,6-dihydropyridine-3-carboxamide] | 5 to 50
5 | C[C@@H](CC(=O)N1CCC(O)(Cn2cc(C(=O)N(C)C)c(-c3ccccc3)cc2=O)C2(CCCC2)C1)c1ccccc1 (stereo partly drawn) [Example 183, 1-((10-Hydroxy-7-((S)-3-phenylbutanoyl)-7-azaspiro[4.5]decan-10-yl)methyl)-N,N-dimethyl-6-oxo-4-phenyl-1,6-dihydropyridine-3-carboxamide] | 5 to 50
6 | CN(C)C(=O)c1cn(CC2(O)CCN(C(=O)C3(C)CCCC3)CC23CCCC3)c(=O)cc1-c1ccccc1 (stereo not shown) [Example 186, 1-((10-Hydroxy-7-(1-methylcyclopentane-1-carbonyl)-7-azaspiro[4.5]decan-10-yl)methyl)-N,N-dimethyl-6-oxo-4-phenyl-1,6-dihydropyridine-3-carboxamide] | 50 to 250
7 | CN(C)C(=O)c1cn(CC2(O)CCN(C(=O)c3cc[nH]n3)CC23CCCC3)c(=O)cc1-c1ccccc1 (stereo not shown) [Example 187, 1-((10-Hydroxy-7-(1H-pyrazole-3-carbonyl)-7-azaspiro[4.5]decan-10-yl)methyl)-N,N-dimethyl-6-oxo-4-phenyl-1,6-dihydropyridine-3-carboxamide] | 50 to 250
8 | CN(C)C(=O)c1cn(CC2(O)CCN(C(=O)c3n[nH]c4ccccc34)CC23CCCC3)c(=O)cc1-c1ccccc1 (stereo not shown) [Example 188, 1-((10-Hydroxy-7-(1H-indazole-3-carbonyl)-7-azaspiro[4.5]decan-10-yl)methyl)-N,N-dimethyl-6-oxo-4-phenyl-1,6-dihydropyridine-3-carboxamide] | 50 to 250
9 | CN(C)C(=O)c1cn(CC2(O)CCN(C(=O)c3c[nH]c4ccccc34)CC23CCCC3)c(=O)cc1-c1ccccc1 (stereo not shown) [Example 190, 1-((10-Hydroxy-7-(1H-indole-3-carbonyl)-7-azaspiro[4.5]decan-10-yl)methyl)-N,N-dimethyl-6-oxo-4-phenyl-1,6-dihydropyridine-3-carboxamide] | 50 to 250
10 | CN(C)C(=O)c1cn(CC2(O)CCN(C(=O)C34CC(C3)C4)CC23CCCC3)c(=O)cc1-c1ccccc1 (stereo not shown) [Example 191, 1-((7-(Bicyclo[1.1.1]pentane-1-carbonyl)-10-hydroxy-7-azaspiro[4.5]decan-10-yl)methyl)-N,N-dimethyl-6-oxo-4-phenyl-1,6-dihydropyridine-3-carboxamide] | 50 to 250
11 | CN(C)C(=O)c1cn(CC2(O)CCN(C(=O)c3ncoc3-c3ccccc3)CC23CCCC3)c(=O)cc1-c1ccccc1 (stereo not shown) [Example 192, 1-((10-Hydroxy-7-(5-phenyloxazole-4-carbonyl)-7-azaspiro[4.5]decan-10-yl)methyl)-N,N-dimethyl-6-oxo-4-phenyl-1,6-dihydropyridine-3-carboxamide] | 5 to 50
12 | CN(C)C(=O)c1cn(CC2(O)CCN(C(=O)c3ncoc3C3CC3)CC23CCCC3)c(=O)cc1-c1ccccc1 (stereo not shown) [Example 193, 1-((7-(5-Cyclopropyloxazole-4-carbonyl)-10-hydroxy-7-azaspiro[4.5]decan-10-yl)methyl)-N,N-dimethyl-6-oxo-4-phenyl-1,6-dihydropyridine-3-carboxamide] | 5 to 50
13 | CN(C)C(=O)c1cn(CC2(O)CCN(C(=O)COC3CCCCC3)CC23CCCC3)c(=O)cc1-c1ccccc1 (stereo not shown) [Example 194, 1-((7-(2-(Cyclohexyloxy)acetyl)-10-hydroxy-7-azaspiro[4.5]decan-10-yl)methyl)-N,N-dimethyl-6-oxo-4-phenyl-1,6-dihydropyridine-3-carboxamide] | 5 to 50
14 | CN(C)C(=O)c1cn(CC2(O)CCN(C(=O)C3CC34CC4)CC23CCCC3)c(=O)cc1-c1ccccc1 (stereo not shown) [Example 195, 1-((10-Hydroxy-7-(spiro[2.2]pentane-1-carbonyl)-7-azaspiro[4.5]decan-10-yl)methyl)-N,N-dimethyl-6-oxo-4-phenyl-1,6-dihydropyridine-3-carboxamide] | 5 to 50
15 | CN(C)C(=O)c1cn(CC2(O)CCN(C(=O)c3cccn3Cc3ccccc3)CC23CCCC3)c(=O)cc1-c1ccccc1 (stereo not shown) [Example 198, 1-((7-(1-Benzyl-1H-pyrrole-2-carbonyl)-10-hydroxy-7-azaspiro[4.5]decan-10-yl)methyl)-N,N-dimethyl-6-oxo-4-phenyl-1,6-dihydropyridine-3-carboxamide] | 5 to 50
16 | CC(OC1CCCCC1)C(=O)N1CCC(O)(Cn2cc(C(=O)N(C)C)c(-c3ccccc3)cc2=O)C2(CCCC2)C1 (stereo not shown) [Example 199, 1-((7-(2-(Cyclohexyloxy)propanoyl)-10-hydroxy-7-azaspiro[4.5]decan-10-yl)methyl)-N,N-dimethyl-6-oxo-4-phenyl-1,6-dihydropyridine-3-carboxamide] | 5 to 50
17 | CN(C)C(=O)c1cn(CC2(O)CCN(C(=O)COC3CCC3)CC23CCCC3)c(=O)cc1-c1ccccc1 (stereo not shown) [Example 201, 1-((7-(2-Cyclobutoxyacetyl)-10-hydroxy-7-azaspiro[4.5]decan-10-yl)methyl)-N,N-dimethyl-6-oxo-4-phenyl-1,6-dihydropyridine-3-carboxamide] | 5 to 50
18 | CN(C)C(=O)c1cn(CC2(O)CCN(C(=O)C3CCC(F)(F)C3)CC23CCCC3)c(=O)cc1-c1ccccc1 (stereo not shown) [Example 202, 1-((7-(3,3-Difluorocyclopentane-1-carbonyl)-10-hydroxy-7-azaspiro[4.5]decan-10-yl)methyl)-N,N-dimethyl-6-oxo-4-phenyl-1,6-dihydropyridine-3-carboxamide] | 50 to 250

Further lines, results first:

Row | IC50 [µM] | SMILES
19 | 5 to 50 | CN(C)C(=O)c1cn(CC2(O)CCN(C(=O)C3(C)CCCCC3)CC23CCCC3)c(=O)cc1-c1ccccc1 (stereo not shown) [Example 176, 1-((10-Hydroxy-7-(1-methylcyclohexane-1-carbonyl)-7-azaspiro[4.5]decan-10-yl)methyl)-N,N-dimethyl-6-oxo-4-phenyl-1,6-dihydropyridine-3-carboxamide]
20 | 5 to 50 | CN(C)C(=O)c1cn(CC2(O)CCN(C(=O)C[C@@H](c3ccccc3)C(F)F)CC23CCCC3)c(=O)cc1-c1ccccc1 (stereo partly drawn) [Example 180, 1-((7-((S)-4,4-Difluoro-3-phenylbutanoyl)-10-hydroxy-7-azaspiro[4.5]decan-10-yl)methyl)-N,N-dimethyl-6-oxo-4-phenyl-1,6-dihydropyridine-3-carboxamide]
21 | 0.5 to 5 | CN(C)C(=O)c1cn(CC2(O)CCN(C(=O)C[C@H](c3ccccc3)C(F)F)CC23CCCC3)c(=O)cc1-c1ccccc1 (stereo partly drawn) [Example 181, 1-((7-((R)-4,4-Difluoro-3-phenylbutanoyl)-10-hydroxy-7-azaspiro[4.5]decan-10-yl)methyl)-N,N-dimethyl-6-oxo-4-phenyl-1,6-dihydropyridine-3-carboxamide]
22 | 0.5 to 5 | CN(C)C(=O)c1cn(CC2(O)CCN(C(=O)CCc3ccc(F)cc3)CC23CCCC3)c(=O)cc1-c1ccccc1 (stereo not shown) [Example 184, 1-((7-(3-(4-Fluorophenyl)propanoyl)-10-hydroxy-7-azaspiro[4.5]decan-10-yl)methyl)-N,N-dimethyl-6-oxo-4-phenyl-1,6-dihydropyridine-3-carboxamide]
23 | 0.5 to 5 | C[C@H](CC(=O)N1CCC(O)(Cn2cc(C(=O)N(C)C)c(-c3ccccc3)cc2=O)C2(CCCC2)C1)c1ccccc1 (stereo partly drawn) [Example 185, 1-((10-Hydroxy-7-((R)-3-phenylbutanoyl)-7-azaspiro[4.5]decan-10-yl)methyl)-N,N-dimethyl-6-oxo-4-phenyl-1,6-dihydropyridine-3-carboxamide]
24 | 0.5 to 5 | CN(C)C(=O)c1cn(CC2(O)CCN(C(=O)c3c[nH]nc3C3CCCCC3)CC23CCCC3)c(=O)cc1-c1ccccc1 (stereo not shown) [Example 189, 1-((7-(3-Cyclohexyl-1H-pyrazole-4-carbonyl)-10-hydroxy-7-azaspiro[4.5]decan-10-yl)methyl)-N,N-dimethyl-6-oxo-4-phenyl-1,6-dihydropyridine-3-carboxamide]
25 | 0.5 to 5 | CN(C)C(=O)c1cn(CC2(O)CCN(C(=O)C3CCC(C(F)(F)F)C3)CC23CCCC3)c(=O)cc1-c1ccccc1 (stereo not shown) [Example 196, 1-((10-Hydroxy-7-(3-(trifluoromethyl)cyclopentane-1-carbonyl)-7-azaspiro[4.5]decan-10-yl)methyl)-N,N-dimethyl-6-oxo-4-phenyl-1,6-dihydropyridine-3-carboxamide]
26 | < 0.5 | CC(C)CC(C)C(=O)N1CCC(O)(Cn2cc(C(=O)N(C)C)c(-c3ccccc3)cc2=O)C2(CCCC2)C1 (stereo not shown) [Example 197]
27 | 0.5 to 5 | CC1(C)CN(C(=O)[C@H](CO)CC2CCC2)CCC1(O)Cn1cnc(-c2ccccc2F)cc1=O (stereo partly drawn) [Example 200, 3-((1-((S)-3-Cyclobutyl-2-(hydroxymethyl)propanoyl)-4-hydroxy-3,3-dimethylpiperidin-4-yl)methyl)-6-(2-fluorophenyl)pyrimidin-4(3H)-one]
28 | 0.5 to 5 | CN(C)C(=O)c1cn(CC2(O)CCN(C(=O)C(O)Cc3ccccc3)CC23CCCC3)c(=O)cc1-c1ccccc1 (stereo not shown) [Example 203, 1-((10-Hydroxy-7-(2-hydroxy-3-phenylpropanoyl)-7-azaspiro[4.5]decan-10-yl)methyl)-N,N-dimethyl-6-oxo-4-phenyl-1,6-dihydropyridine-3-carboxamide]
